Assay results reported in article PMC3428523, “Phase I study of the Aurora B kinase inhibitor barasertib (AZD1152) to assess the pharmacokinetics, metabolism and excretion in patients with acute myeloid leukemia” (Cancer Chemotherapy and Pharmacology, 2012).
Like-named read-outs stand apart in the source and are kept apart here. Marks after values point to notes of the source that are not given here. One block for each compound: values may come before it.

Legend:
[1] = Metabolite profiling of plasma, urine and feces by HPLC-RAD / HPLC-MSn; assay type: in vivo, human
Method: Samples of blood, urine and feces were collected prior to study treatment and at various time points during Cycle 1. […] A urine sample was collected within the 24-hour period prior to barasertib-SOI; feces samples within this 24-hour period were also collected. A urine sample was collected within the 24-hour period following barasertib-SOI.
Barasertib and barasertib-hQPA concentrations in plasma and urine were measured using liquid chromatography tandem mass spectrometry following solid-phase extraction (plasma) or dilution (urine). Plasma measurements were determined by an independent bioanalytical facility (PRA International—Early Development Services, Assen, The Netherlands). […] Radioactivity in weighed aliquots of plasma, urine, feces, whole blood and dose material was determined by liquid scintillation counting (LSC). Radioactivity concentrations in plasma and whole blood, and percentage dose excreted in urine and feces samples were calculated using LabLogic Debra 5TM (version 5.4.10.51). […] Extracts were concentrated to dryness and reconstituted in water/acetonitrile (95:5 v/v). […] The two extracts were combined, concentrated to dryness and reconstituted in water/acetonitrile (95:5 v/v). […] The first two 5 % formic acid/acetonitrile extracts were combined, concentrated to a small volume and reconstituted in water/acetonitrile (95:5 v/v). Metabolite profiling was determined using high-performance liquid chromatography–radiometric (HPLC-RAD) methodology, with metabolites identified by HPLC coupled with mass spectrometry (HPLC-MSn).

[2] = Plasma pharmacokinetics of barasertib and barasertib-hQPA (LC-MS/MS), 7-day continuous infusion in patients with AML; assay type: in vivo, human; settings: for Time by which maximal plasma concentration was achieved: from start of infusion, first scheduled sample
Method: (§1) This was an open-label, single-arm, single-center, Phase I study. Patients received barasertib 1,200 mg as a 7-day continuous intravenous infusion every 28 days. On Day 2 of Cycle 1 only, patients also received [^14C]-barasertib (250 μCi), administered as a 2-hour infusion. Based on preclinical studies in rat and dog, it was expected that an adequate recovery of total radioactivity, and thus comprehensive metabolite profiling, would be achieved following the administration of the specified [^14C]-barasertib regimen (data on file). On the completion of the [^14C]-barasertib infusion, administration of non-radiolabeled barasertib resumed for the remainder of the 7-day infusion period. Following Cycle 1, each patient could receive subsequent treatment cycles until disease progression or any other discontinuation criteria were met. For Cycle 1, patients remained as in-patients for up to 9 days following the start of the 7-day barasertib infusion (7 days of dosing plus 2 additional days for observation). For all subsequent cycles, patients were hospitalized for the infusion period only.
(§2) Samples of blood, urine and feces were collected prior to study treatment and at various time points during Cycle 1. Blood samples were collected approximately 30 min prior to start of infusion (SOI) on Day 1 (barasertib) and Day 2 ([^14C]-barasertib), and then every 24 h until Day 10 (216 h) and on Days 14 and 18 (312 and 408 h, respectively). In addition, samples were collected on Day 2: 1 h following the start of the [^14C]-barasertib infusion ([^14C]-SOI), 5 min prior to the end of [^14C]-barasertib infusion ([^14C]-EOI), and at 15 min, 1, 2, 4 and 8 h following [^14C]-EOI; and on Day 8: 5 min prior to the end of the barasertib infusion (EOI), and at 15 min, 1, 2, 4, 6 and 10 h following EOI. A urine sample was collected within the 24-hour period prior to barasertib-SOI; feces samples within this 24-hour period were also collected. A urine sample was collected within the 24-hour period following barasertib-SOI. Further, urine and feces samples were collected within 24-hour periods following [^14C]-SOI: 0–24, 24–48, 48–72, 72–96, 96–120, 120–144, 144–168 and 168–192 h.
(§3) Barasertib and barasertib-hQPA concentrations in plasma and urine were measured using liquid chromatography tandem mass spectrometry following solid-phase extraction (plasma) or dilution (urine). Plasma measurements were determined by an independent bioanalytical facility (PRA International—Early Development Services, Assen, The Netherlands). The lower limit of quantification (LLOQ) was 0.25 ng/mL for plasma samples and 1.00 μg/mL for urine samples. Radioactivity in weighed aliquots of plasma, urine, feces, whole blood and dose material was determined by liquid scintillation counting (LSC). Radioactivity concentrations in plasma and whole blood, and percentage dose excreted in urine and feces samples were calculated using LabLogic Debra 5TM (version 5.4.10.51). For metabolite profiling, plasma samples that were collected 5 min prior to [^14C]-EOI for each patient were prepared using 5 % formic acid in acetonitrile; extraction efficiencies were all >91 %. Extracts were concentrated to dryness and reconstituted in water/acetonitrile (95:5 v/v). Pooled urine samples were freeze-dried and then reconstituted in methanol (duplicate extracts); extraction efficiencies were all >94 %. The two extracts were combined, concentrated to dryness and reconstituted in water/acetonitrile (95:5 v/v). Pooled feces samples were extracted with hexane followed by 3 × 5 % formic acid in acetonitrile; extraction efficiencies ranged from 86 to 98 %. The first two 5 % formic acid/acetonitrile extracts were combined, concentrated to a small volume and reconstituted in water/acetonitrile (95:5 v/v). Metabolite profiling was determined using high-performance liquid chromatography–radiometric (HPLC-RAD) methodology, with metabolites identified by HPLC coupled with mass spectrometry (HPLC-MSn).

[3] = Urine pharmacokinetics of barasertib and barasertib-hQPA (LC-MS/MS) in patients with AML; assay type: in vivo, human
Method: as §1, §2
as §3, with “Pooled urine samples were freeze-dried and then reconstituted in methanol (duplicate extracts); extraction efficiencies were all >94 %. The two extracts were combined, concentrated to dryness and reconstituted in water/acetonitrile (95:5 v/v). Pooled feces samples were extracted with hexane followed by 3 × 5 % formic acid in acetonitrile; extraction efficiencies ranged from 86 to 98 %. The first two 5 % formic acid/acetonitrile extracts were combined, concentrated to a small volume and reconstituted in water/acetonitrile (95:5 v/v).” left out

[4] = tested on: patients with AML; test: Safety: adverse events graded by CTCAE version 3.0; assay type: in vivo, human
Method: (§4) Efficacy was assessed according to the International Working Group for AML trials criteria. Adverse events (AEs) were graded according to the National Cancer Institute Common Terminology Criteria for Adverse Events (CTCAE), version 3.0 [19].

[5] = tested on: patients with AML; test: Efficacy: response by International Working Group AML criteria; assay type: in vivo, human
Method: The primary objective was to assess the PK, metabolism and excretion profiles of barasertib and barasertib-hQPA following a single 7-day intravenous infusion, including a short infusion of [^14C]-barasertib, to patients with AML. Secondary objectives were to assess the safety and tolerability of barasertib and to evaluate preliminary efficacy by measurement of individual patient response (based on the International Working Group AML clinical response criteria).
as §4

[6] = tested on: patients with AML; design: method as in PMID 21976672, PMID 21565405; settings: Phase I studies, Japanese and Western patients with AML; cited from earlier work
[7] = tested on: AML patients; settings: Phase I/II dose-escalation study; cited from earlier work
[8] = excreta (urine and feces), % of administered dose
[9] = plasma collected 5 min prior to [14C]-EOI, % of chromatogram radioactivity
[10] = human, plasma, iv, 1200 mg, plasma, n=4, barasertib 1,200 mg 7-day continuous i.v. infusion, geometric mean (coefficient of variation), read-out: AUC(0–t)
[11] = plasma, n=4, barasertib 1,200 mg 7-day continuous i.v. infusion, geometric mean (coefficient of variation)
[12] = urine, n=5, arithmetic mean (standard deviation)
[13] = Grade 3, barasertib 1,200 mg, n = 5
[14] = all grades, any cause, barasertib 1,200 mg, n = 5
[15] = all grades, barasertib 1,200 mg, n = 5

Compound: CCN(CCO)CCCOc1ccc2c(Nc3cc(CC(=O)O)[nH]n3)ncnc2c1 [Barasertib-hQPA desfluoroaniline]
Retrieved radioactivity (%), range [1, 8]: 1.60–5.48%
Retrieved radioactivity (%), range [1, 9]: 2.05^e %

Geometric mean plasma concentration of barasertib-hQPA relative to barasertib ([2]; during the infusion period): approximately threefold
Time by which maximal plasma concentration was achieved [2]: ≤ 24 h
Difference between volumes of distribution (apparent) at steady state versus terminal phase ([2]; human, in vivo): fourfold
clearance ([2]; human, intravenous, 1200 mg, plasma, n=4, arithmetic mean (standard deviation), read-out: CL, total clearance (converted)): 523 mL/min
half-life ([2]; human, intravenous, 1200 mg, plasma, n=4, arithmetic mean (standard deviation), read-out: t½, terminal half-life (converted)): 66.3 h
k el ([2]; human, intravenous, 1200 mg, plasma, n=4, arithmetic mean (standard deviation), read-out: λZ, slowest disposition rate constant (converted)): 5.56e-06 s⁻¹
AUC ([2]; human, iv, 1200 mg, plasma, n=4, barasertib 1,200 mg 7-day continuous i.v. infusion, geometric mean (coefficient of variation)): 40400 ng·h/mL
Vd ([2]; human, plasma, intravenous, 1200 mg, plasma, n=4, arithmetic mean (standard deviation), read-out: VSS, volume of distribution (apparent) at steady state): 669 L
Vd ([2]; human, plasma, intravenous, 1200 mg, plasma, n=4, arithmetic mean (standard deviation), read-out: VZ, volume of distribution (apparent) during terminal (λZ) phase): 2800 L
concentration at 408 h ([2]; human, plasma, intravenous, 1200 mg, 408 h (Day 18), read-out: Plasma concentration at final sampling point): ~4 ng/mL
AUC(0-t) ([2]; human, plasma, iv, 1200 mg, plasma, n=4, barasertib 1,200 mg 7-day continuous i.v. infusion, geometric mean (coefficient of variation), read-out: AUC(0–192 h)): 38200 ng·h/mL
AUC(0-t) [2, 10]: 40100 ng·h/mL
CSS, steady-state drug concentration [2, 11]: 226.8 (0.4) ng/mL
Plasma concentration as fraction of the plasma steady-state concentration ([2]; within 2 h post-EOI, rapid initial phase): one-third
Geometric mean urine concentration ([3]; during the infusion period): 4 to 5 µg/mL
CL renal ([3]; human, urine and plasma, intravenous, 1200 mg, urine, n=5, arithmetic mean (standard deviation), read-out: CLR, renal clearance of drug from plasma (converted)): 47.5 mL/min
fe, fraction of drug excreted into urine [3, 12]: 8.1 (3.9) %
Retrieved radioactivity (%), range [1, 8]: 13.15–33.70%
Retrieved radioactivity (%), range ([1]; excreta (urine and feces), % of administered dose, listed as barasertib-hQPA): 13.2–33.7%
Retrieved radioactivity (%), range [1, 9]: 48.27–56.61%
Compound: CCN(CCO)CCCOc1ccc2c(Nc3cc(CC(=O)Nc4cccc(F)c4)[nH]n3)ncnc2c1 [Barasertib-hQPA, barasertib-hydroxyquinazoline-pyrazol-aniline]
Ae, cumulative amount of unchanged drug excreted [3, 12]: 96.9 (47.2) mg

Compound: CCN(CCCOc1ccc2c(Nc3cc(CC(=O)Nc4cccc(F)c4)n[nH]3)ncnc2c1)CCOP(=O)(O)O [Barasertib]
Time after end of infusion at which plasma concentration reached the LLOQ ([2]; LLOQ 0.25 ng/mL plasma): ≤ 6 h
Time by which maximal plasma concentration was achieved [2]: ≤ 24 h
AUC(0-t) [2, 10]: 13800 ng·h/mL
CSS, steady-state drug concentration [2, 11]: 85.6 (0.5) ng/mL
Urine concentration ([3]; all time points, LLOQ 1.00 μg/mL urine): below LLOQ
Retrieved radioactivity (%), range [1, 9]: 17.26–26.53%
Febrile neutropenia, number of patients [4, 13]: 2
Hypocalcemia, number of patients [4, 13]: 1
Hypomagnesemia, number of patients [4, 13]: 1
Stomatitis, number of patients [4, 13]: 2
Febrile neutropenia, number of patients ([4]; Grade 4, barasertib 1,200 mg, n = 5): 1
Nausea, number of patients [4, 14]: 4
Stomatitis, number of patients [4, 14]: 4
Alopecia, number of patients [4, 15]: 3
Constipation, number of patients [4, 15]: 2
Decreased appetite, number of patients [4, 15]: 2
Diarrhea, number of patients [4, 15]: 2
Fatigue, number of patients [4, 15]: 2
Febrile neutropenia, number of patients [4, 15]: 3
Headache, number of patients [4, 15]: 2
Hypocalcemia, number of patients [4, 15]: 3
Hypomagnesemia, number of patients [4, 15]: 2
Oral candidiasis, number of patients [4, 15]: 2
Peripheral edema, number of patients [4, 15]: 2
Vomiting, number of patients [4, 15]: 3
Patients who had died due to an AE ([4]; at data cutoff, grade 5 multi-organ failure, considered unrelated to study treatment): one
Changes in vital signs or ECG measurements ([4]; barasertib 1,200 mg, n = 5): no clinically relevant changes
Patients who experienced grade ≥3 AEs ([4]; barasertib 1,200 mg, n = 5): three
Patients with no response ([5]; four patients evaluable for response): three
Patients achieving complete response / complete remission ([5]; four patients evaluable for response, barasertib 1,200 mg 7-day infusion every 28 days): One
Duration of complete response ([5]; one patient): ~ 6 months
Response rates [6]: 19–25%
Maximum tolerated dose (MTD) [7]: 1,200 mg

Compound: Barasertib-hQPA N-oxide
Retrieved radioactivity (%), range [1, 8]: 0.21–2.96%
